{"source": "patent US12522602B2", "about": "“Derivatives having 2,3-dihydro-1H-indene or 2,3-dihydrobenzofuran moiety or pharmaceutically acceptable salt thereof and pharmaceutical compositions comprising the same” (YUHAN CORPORATION, priority 2019, dated 2026)"}
{"test_system": "GM1 production in Jurkat cells", "test": "cells", "format": "cell-based", "details": "Homo sapiens, Jurkat, 72 h", "units": {"IC50": "nM"}}
{"smiles": "CCCOc1cccc(F)c1-c1ccc2c(c1)CC(C)(C)C2NC(=O)O[C@@H]1CN2CCC1CC2", "note": "(stereo partly drawn) [Example 214, (S)-quinuclidin-3-yl (5-(2-fluoro-6-propoxyphenyl)-2,2-dimethyl-2,3-dihydro-1H-inden-1-yl)carbamate]", "IC50": 64.2}
{"smiles": "COc1cc2c(cc1-c1cccc(OCC(C)C)c1)CC(C)(C)C2NC(=O)O[C@@H]1CN2CCC1CC2", "note": "(stereo partly drawn) [Example 343, (S)-quinuclidin-3-yl (5-(3-isobutoxyphenyl)-6-methoxy-2,2-dimethyl-2,3-dihydro-1H-inden-1-yl)carbamate]", "IC50": 45.7}
{"smiles": "CC1(C)Cc2cc(-c3ccccc3F)ccc2C1NC(=O)O[C@@H]1CN2CCC1CC2", "note": "(stereo partly drawn) [Example 81, (S)-quinuclidin-3-yl (5-(2-fluorophenyl)-2,2-dimethyl-2,3-dihydro-1H-inden-1-yl)carbamate]", "IC50": 12.2}
{"smiles": "CCC1(CC)Cc2cc(-c3cccc(OC)c3OC)ccc2C1NC(=O)O[C@@H]1CN2CCC1CC2", "note": "(stereo partly drawn) [Example 295, (S)-quinuclidin-3-yl (5-(2,3-dimethoxyphenyl)-2,2-diethyl-2,3-dihydro-1H-inden-1-yl)carbamate]", "IC50": 35}
{"smiles": "COc1cc(F)cc(-c2ccc3c(c2)CC(C)(C)C3NC(=O)O[C@@H]2CN3CCC2CC3)c1", "note": "(stereo partly drawn) [Example 222, (S)-quinuclidin-3-yl (5-(3-fluoro-5-methoxyphenyl)-2,2-dimethyl-2,3-dihydro-1H-inden-1-yl)carbamate]", "IC50": 25.6}
{"smiles": "CC1(C)Cc2cc(/C=C/c3cccc(F)c3)ccc2C1NC(=O)O[C@@H]1CN2CCC1CC2", "note": "(stereo partly drawn) [Example 273, (S)-quinuclidin-3-yl (5-((E)-3-fluorostyryl)-2,2-dimethyl-2,3-dihydro-1H-inden-1-yl)carbamate]", "IC50": 13.4}
{"smiles": "CC1(C)Cc2cc(-c3ccc(F)cc3Cl)ccc2C1NC(=O)O[C@@H]1CN2CCC1CC2", "note": "(stereo partly drawn) [Example 225, (S)-quinuclidin-3-yl (5-(2-chloro-4-fluorophenyl)-2,2-dimethyl-2,3-dihydro-1H-inden-1-yl)carbamate]", "IC50": 21.3}
{"smiles": "CC(C)(C)Oc1cc(-c2ccc3c(c2)CC(C)(C)C3NC(=O)O[C@@H]2CN3CCC2CC3)ccn1", "note": "(stereo partly drawn) [Example 187, (S)-quinuclidin-3-yl (5-(2-(tert-butoxy)pyridin-4-yl)-2,2-dimethyl-2,3-dihydro-1H-inden-1-yl)carbamate]", "IC50": 31.7}
{"smiles": "O=C(NC1CCc2cc(-c3ccc(F)cc3F)ccc21)O[C@@H]1CN2CCC1CC2", "note": "(stereo partly drawn) [Example 16, (S)-quinuclidin-3-yl (5-(2,4-difluorophenyl)-2,3-dihydro-1H-inden-1-yl)carbamate]", "IC50": 56.1}
{"smiles": "CC1(C)Cc2cc(-c3ccc(OCC(F)(F)F)cc3)ccc2C1NC(=O)O[C@@H]1CN2CCC1CC2", "note": "(stereo partly drawn) [Example 116, (S)-quinuclidin-3-yl (2,2-dimethyl-5-(4-(2,2,2-trifluoroethoxy)phenyl)-2,3-dihydro-1H-inden-1-yl)carbamate]", "IC50": 16.7}
{"smiles": "CCCc1ccc(-c2cc3c(cc2OC)C(NC(=O)O[C@@H]2CN4CCC2CC4)C(C)(C)C3)cc1", "note": "(stereo partly drawn) [Example 313, (S)-quinuclidin-3-yl (6-methoxy-2,2-dimethyl-5-(4-propylphenyl)-2,3-dihydro-1H-inden-1-yl)carbamate]", "IC50": 7.3}
{"smiles": "CC1(C)Cc2cc(-c3cc(F)ccc3F)ccc2C1NC(=O)O[C@@H]1CN2CCC1CC2", "note": "(stereo partly drawn) [Example 88, (S)-quinuclidin-3-yl (5-(2,5-difluorophenyl)-2,2-dimethyl-2,3-dihydro-1H-inden-1-yl)carbamate]", "IC50": 11.1}
{"smiles": "CCCOc1ccc(-c2cc3c(cc2F)C(NC(=O)O[C@@H]2CN4CCC2CC4)C(C)(C)C3)cc1", "note": "(stereo partly drawn) [Example 357, (S)-quinuclidin-3-yl (6-fluoro-2,2-dimethyl-5-(4-propoxyphenyl)-2,3-dihydro-1H-inden-1-yl)carbamate]", "IC50": 5.3}
{"smiles": "CC(C)Oc1cccc(-c2ccc3c(c2)CC(C)(C)C3NC(=O)O[C@@H]2CN3CCC2CC3)c1", "note": "(stereo partly drawn) [Example 105, (S)-quinuclidin-3-yl (5-(3-isopropoxyphenyl)-2,2-dimethyl-2,3-dihydro-1H-inden-1-yl)carbamate]", "IC50": 15.2}
{"smiles": "CC(C)COc1ccc(-c2cc3c(cc2F)C(NC(=O)O[C@@H]2CN4CCC2CC4)C(C)(C)C3)cc1", "note": "(stereo partly drawn) [Example 362, (S)-quinuclidin-3-yl (6-fluoro-5-(4-isobutoxyphenyl)-2,2-dimethyl-2,3-dihydro-1H-inden-1-yl)carbamate]", "IC50": 2.5}
{"smiles": "CC(C)COc1cccc(-c2ccc3c(c2)CC(C)(C)C3NC(=O)O[C@@H]2CN3CCC2CC3)c1", "note": "(stereo partly drawn) [Example 205, (S)-quinuclidin-3-yl (5-(3-isobutoxyphenyl)-2,2-dimethyl-2,3-dihydro-1H-inden-1-yl)carbamate]", "IC50": 7.6}
{"smiles": "O=C(NC1CCc2ccc(-c3ccc(Cl)c(Cl)c3)cc21)O[C@@H]1CN2CCC1CC2", "note": "(stereo partly drawn) [Example 47, (S)-quinuclidin-3-yl (6-(3,4-dichlorophenyl)-2,3-dihydro-1H-inden-1-yl)carbamate]", "IC50": 26.6}
{"smiles": "COc1cccc(-c2ccc3c(c2)CC(C)(C)C3NC(=O)O[C@@H]2CN3CCC2CC3)c1Cl", "note": "(stereo partly drawn) [Example 124, (S)-quinuclidin-3-yl (5-(2-chloro-3-methoxyphenyl)-2,2-dimethyl-2,3-dihydro-1H-inden-1-yl)carbamate]", "IC50": 22.3}
{"smiles": "Cc1ccc(Cl)c(-c2ccc3c(c2)CC(C)(C)C3NC(=O)O[C@@H]2CN3CCC2CC3)c1", "note": "(stereo partly drawn) [Example 223, (S)-quinuclidin-3-yl (5-(2-chloro-5-methylphenyl)-2,2-dimethyl-2,3-dihydro-1H-inden-1-yl)carbamate]", "IC50": 5.2}
{"smiles": "O=C(NC1CCc2cc(-c3cccc(C(F)(F)F)c3)ccc21)O[C@@H]1CN2CCC1CC2", "note": "(stereo partly drawn) [Example 7, (S)-quinuclidin-3-yl (5-(3-(trifluoromethyl)phenyl)-2,3-dihydro-1H-inden-1-yl)carbamate]", "IC50": 36.8}
{"smiles": "CC1(C)Cc2cc(-c3ccc(C(F)(F)F)cc3Cl)ccc2C1NC(=O)O[C@@H]1CN2CCC1CC2", "note": "(stereo partly drawn) [Example 183, (S)-quinuclidin-3-yl (5-(2-chloro-4-(trifluoromethyl)phenyl)-2,2-dimethyl-2,3-dihydro-1H-inden-1-yl)carbamate]", "IC50": 18.6}
{"smiles": "COc1cc(-c2cc3c(cc2F)C(NC(=O)O[C@@H]2CN4CCC2CC4)C(C)(C)C3)ccn1", "note": "(stereo partly drawn) [Example 369, (S)-quinuclidin-3-yl (6-fluoro-5-(2-methoxypyridin-4-yl)-2,2-dimethyl-2,3-dihydro-1H-inden-1-yl)carbamate]", "IC50": 172}
{"smiles": "COc1ccc(-c2cc3c(cc2F)C(NC(=O)O[C@@H]2CN4CCC2CC4)C(C)(C)C3)c(OC)c1", "note": "(stereo partly drawn) [Example 381, (S)-quinuclidin-3-yl (5-(2,4-dimethoxyphenyl)-6-fluoro-2,2-dimethyl-2,3-dihydro-1H-inden-1-yl)carbamate]", "IC50": 59.9}
{"smiles": "CC1(C)Cc2cc(-c3cccc4cccnc34)ccc2C1NC(=O)O[C@@H]1CN2CCC1CC2", "note": "(stereo partly drawn) [Example 156, (S)-quinuclidin-3-yl (2,2-dimethyl-5-(quinolin-8-yl)-2,3-dihydro-1H-inden-1-yl)carbamate]", "IC50": 46.7}
{"smiles": "COCOc1ccccc1-c1ccc2c(c1)CC(C)(C)C2NC(=O)O[C@@H]1CN2CCC1CC2", "note": "(stereo partly drawn) [Example 102, (S)-quinuclidin-3-yl (5-(2-(methoxymethoxy)phenyl)-2,2-dimethyl-2,3-dihydro-1H-inden-1-yl)carbamate]", "IC50": 17.4}
{"smiles": "CCc1ccc(-c2ccc3c(c2)CC(CC)(CC)C3NC(=O)O[C@@H]2CN3CCC2CC3)cc1", "note": "(stereo partly drawn) [Example 277, (S)-quinuclidin-3-yl (2,2-diethyl-5-(4-ethylphenyl)-2,3-dihydro-1H-inden-1-yl)carbamate]", "IC50": 2.7}
{"smiles": "COc1cc2c(cc1-c1cc(C)c(OC(C)C)c(C)c1)CC(C)(C)C2NC(=O)O[C@@H]1CN2CCC1CC2", "note": "(stereo partly drawn) [Example 348, (S)-quinuclidin-3-yl (5-(4-isopropoxy-3,5-dimethylphenyl)-6-methoxy-2,2-dimethyl-2,3-dihydro-1H-inden-1-yl)carbamate]", "IC50": 44.1}
{"smiles": "CC(C)Oc1ccc(F)cc1-c1ccc2c(c1)CC(C)(C)C2NC(=O)O[C@@H]1CN2CCC1CC2", "note": "(stereo partly drawn) [Example 208, (S)-quinuclidin-3-yl (5-(5-fluoro-2-isopropoxyphenyl)-2,2-dimethyl-2,3-dihydro-1H-inden-1-yl)carbamate]", "IC50": 67.4}
{"smiles": "CC(C)(C)OCc1ccc(-c2ccc3c(c2)CC(C)(C)C3NC(=O)O[C@@H]2CN3CCC2CC3)cc1", "note": "(stereo partly drawn) [Example 181, (S)-quinuclidin-3-yl (5-(4-(tert-butoxymethyl)phenyl)-2,2-dimethyl-2,3-dihydro-1H-inden-1-yl)carbamate]", "IC50": 5.5}
{"smiles": "CC(C)COc1ccc(-c2ccc3c(c2)CC(C)(C)C3NC(=O)O[C@@H]2CN3CCC2CC3)cn1", "note": "(stereo partly drawn) [Example 268, (S)-quinuclidin-3-yl (5-(6-isobutoxypyridin-3-yl)-2,2-dimethyl-2,3-dihydro-1H-inden-1-yl)carbamate]", "IC50": 2.5}
{"smiles": "CC(C)Oc1ccc(-c2ccc3c(c2)CC(C)(C)C3NC(=O)O[C@@H]2CN3CCC2CC3)cc1F", "note": "(stereo partly drawn) [Example 209, (S)-quinuclidin-3-yl (5-(3-fluoro-4-isopropoxyphenyl)-2,2-dimethyl-2,3-dihydro-1H-inden-1-yl)carbamate]", "IC50": 32.1}
{"smiles": "CCc1ccc(-c2cc3c(cc2OC)C(NC(=O)O[C@@H]2CN4CCC2CC4)C(C)(C)C3)cc1", "note": "(stereo partly drawn) [Example 312, (S)-quinuclidin-3-yl (5-(4-ethylphenyl)-6-methoxy-2,2-dimethyl-2,3-dihydro-1H-inden-1-yl)carbamate]", "IC50": 13.1}
{"smiles": "O=C(NC1c2ccc(-c3cccc(C(F)(F)F)c3)cc2CC12CC2)O[C@@H]1CN2CCC1CC2", "note": "(stereo partly drawn) [Example 394, (S)-quinuclidin-3-yl (5′-(3-(trifluoromethyl)phenyl)-1′,3′-dihydrospiro[cyclopropane-1,2′-inden]-1′-yl)carbamate]", "IC50": 48.8}
{"smiles": "CCCCc1ccc(-c2cc3c(cc2F)C(NC(=O)O[C@@H]2CN4CCC2CC4)C(C)(C)C3)cc1", "note": "(stereo partly drawn) [Example 365, (S)-quinuclidin-3-yl (5-(4-butylphenyl)-6-fluoro-2,2-dimethyl-2,3-dihydro-1H-inden-1-yl)carbamate]", "IC50": 2.4}
{"smiles": "CC(C)(C)c1ccc(-c2cc3c(cc2F)C(NC(=O)O[C@@H]2CN4CCC2CC4)C(C)(C)C3)cc1", "note": "(stereo partly drawn) [Example 353, (S)-quinuclidin-3-yl (5-(4-(tert-butyl)phenyl)-6-fluoro-2,2-dimethyl-2,3-dihydro-1H-inden-1-yl)carbamate]", "IC50": 12.7}
